# Measured values published in patent US20230000795A1, “LIPID CRYSTALLINE COMPOSITIONS WITH ENHANCED STABILITY FOR TOPICAL DELIVERY OF ACTIVE AGENT COMBINATIONS” (Ankh Life Sciences Limited, priority 2021, published 2023).
# Values joined by “and” are separate entries in the source; they are usually repeats but may differ in a detail not shown here. Equal entries are not always repeated. Where two headings read alike, the source gives them in different places.
# Tests used:
# [1] = IVPT on pig skin, finite dose 10 mg/cm^2, 3% and 6% GZ17-6.02 monoglyceride cream; conditions: after 24 h
# Method: Wash the membrane six times with 0.5 ml PBS buffer and collect the PBS in the wash fraction tubes. • 2. Dismount the cells and gently clean the membranes with PBS moisture tops. Collect the tops in the wash fraction tubes. • 3. Gently separate […] from dermis by peeling the membrane and collect in a test tube. • 4. Cut out the cell flange (the unexposed skin) with a 10 mm punch and collect the material in a test tube. • 5. […] The samples should then be centrifuged at 14000 rpm and transferred to HPLC vial for analysis.
# [2] = Solubility in receptor solution (PBS with 0.1% Brij); format: physicochemical; conditions: aqueous with cosolvent or surfactant or cyclodextrin, thermodynamic from solid
# Method: Excess of GZ17-6.02 were added to the solvent, which were stirred for 1 hour and incubated at 32° C. for 24 h. Thereafter the sample was centrifuged or filtrated and the solubility determined by HPLC method DM.216.03[4] or DM.217.01 [5]. One sample was prepared and duplicate injections were analysed.
# [3] = Solubility of the active ingredients in aqueous GZ17-6.02 solutions; format: physicochemical; conditions: aqueous GZ17-6.02 solution
# Excerpt: By comparison, in one study, the solubility of the active ingredients in aqueous GZ17-6.02 solutions (not the lipid crystalline formulation) was first analyzed. […]
# [4] = In vitro permeation test through pig skin, infinite dose (150 mg, 230 mg/cm^2), Bronaugh flow-through cells; conditions: for Cumulative amount permeated: after application of 6% GZ17-6.02 cream batch, mean±SD
# Method: Epidermal accumulation is significant due to the desired site of drug action on keratinocytes in actinic keratosis.
# Three formulations were used in this experiment.
# PBS buffer with 2% (w/w) Brij will be used as receptor solution.
# The equipment used is Bronaugh diffusion cells. Parameters of the experiment is described in tables below. Analyses were performed according to RP-HPLC assay with additional calibration standard solutions. […] For the amount found in the tissue values both with and without cell 11 and 12 are reported.
# After the in vitro experiment was terminated each membrane was washed, dismounted and prepared according to the following procedure: • 1. Wash the membrane six times with 0.5 ml PBS buffer and collect the PBS in the wash fraction tubes. • 2. Dismount the cells and gently clean the membranes with PBS moisture tops. Collect the tops in the wash fraction tubes. • 3. Gently separate […] from dermis by peeling the membrane and collect in a test tube. • 4. Cut out the cell flange (the unexposed skin) with a 10 mm punch and collect the material in a test tube. • 5. Cut the dermis into thin strips with a scalpel and collect the material in a test tube 1.5 ml.
# Analysis of receptor solution and extractions from epidermis and dermis were performed by RP-HPLC.
# Receptor solution were analyzed without any further treatment.
# Tissue samples were treated according to the following procedure: • 1. […] Vortex the sample and sonicate for 30 minutes in cold water (2-8° C. add ice to the bath). • 3. The samples should then be centrifuged at 14000 rpm and transferred to HPLC vial for analysis.
# [5] = system: actinic keratosis cell line HaCaT; test: Growth inhibition of EGF-stimulated HaCaT cells (Cell Titer Glo); format: cell-based; conditions: for IC50: Homo sapiens
# Method: To investigate the mechanisms by which these pathways are affected, GZ17-6.02 was administered to the actinic keratosis cell line HT297.T in vitro and changes in signalling within various pathways were measured 6 hours post administration with cell death measured 24 hours post administration. […] 5-Fluorouracil was tested at a concentration of 50 uM.
# Materials and Methods: A Cell Titer Glo assay was used to determine the sensitivity of EGF-stimulated HaCaT cells to GZ21T. Annexin-V assay was utilized to assess the pro-apoptotic effects of GZ21T on HaCaT cells, and the mechanism was clarified by western blot. AK lesions were induced in Female SKH-1 mice by exposing them to UVB radiation (500 J/m2) five times weekly for ten weeks. Mice were subsequently treated with 0.25 grams topical GZ21T or control cream five days per week. At the studies endpoint, lesional samples were collected from control and GZ21T treated mice and were subjected to RNA-sequencing and reverse phase protein arrays (RPPA). Gene set enrichment analysis (GSEA) was performed using the KEGG database as reference to identify the top pathways altered by GZ21T treatment. Gene set variation analysis (GSVA) was used to assess GZ21T's effect on pathways previously implicated in the pathogenesis of AK. Enrichment analysis was also performed on proteins showing decreased expression following GZ21T treatment using Enrichr with the KEGG database as reference.
# [6] = PBS buffer with 0.1% Brij, 32° C., 24 h, read-out: Solubility in receptor solution
# [7] = after application of 6% GZ17-6.02 cream
# [8] = same experimental methods (FIG. 6), read-out: IC50
# [9] = pig, 24 h, 6 % GZ17-6.02 in cream
Compound,"solubility at 24 h [2, 6] [µg/mL]",Solubility at 2-8° C. ([3]; pH 4.3) [% w/w],Solubility at 25° C. ([3]; pH 4.3) [% w/w],Solubility at 2-8° C. ([3]; pH 7.0) [% w/w],Solubility at 25° C. ([3]; pH 7.0) [% w/w],"Amount adsorbed into dermis [4, 7] [µg/g]","Amount adsorbed into epidermis [4, 7] [µg/g]",Maximum obtained concentration in the receptor solution ([4]; previous IVPT experiment) [µg/mL],"IC50 [5, 8] [µM]",also measured
COc1ccc(C=O)cc1O [Isovanillin],3960 ± 30,0.27,0.57,0.18,0.28,29.4 ± 19.3,181.2 ± 118.3,18,–,Applied dose permeated the skin [1]: about 2%; Cumulative amount permeated ([4]; 2 h): 35.0 ± 20.7 μg/cm^2; Cumulative amount permeated ([4]; 4 h): 103.4 ± 47.6 μg/cm^2; Cumulative amount permeated ([4]; 6 h): 169.3 ± 66.1 μg/cm^2; Cumulative amount permeated ([4]; 8 h): 209.5 ± 74.4 μg/cm^2; Cumulative amount permeated ([4]; 24 h): 208 μg/cm^2 and 207.9 ± 95.2 μg/cm^2; Applied dose permeated when deviation from the linear regime (depletion) occurs ([4]; after 6-8 hours): about 1.5%; Systemic adsorption ([4]; extrapolated from in vitro 24 h permeation to a treated area of 25 cm^2): 5.2 mg
"O=c1[nH]cc(F)c(=O)[nH]1 [5-Fluorouracil, reference compound]",–,–,–,–,–,–,–,–,4.8,–
"COc1ccc2c(c1)[nH]c1c(C)nccc12 [Harmine, 7-methoxy-1-methyl-9H-pyrido[3,4-b]indole]",50,>1.56,>1.56,0.0014,0.0034,38.9 ± 24.4,585.5 ± 227.8,0.13,–,IC50 ([5]; read-out: IC50 as Monotherapy): 2.55 µg/mL and 12 µM
"COc1cc(/C=C/C(=O)CC(=O)/C=C/c2ccc(O)c(OC)c2)ccc1O [Curcumin, 1,7-bis(4-hydroxy3-methoxyphenyl)-1,6-heptadiene-3,5-dione]",–,–,–,–,–,–,–,–,–,"IC50 as Monotherapy ([5]; API alone): 0.736 µg/mL; IC50 ([5]; API alone, read-out: IC50 as Monotherapy): 0.774 µg/mL and 2 µM; solubility at 24 h ([2]; 32 °C): 10 µg/mL; Maximum obtained concentration in the receptor solution ([4]; pig, 6 % GZ17-6.02 in cream): 0 µg/mL; Amount adsorbed into dermis [4, 9]: 0.40 ± 0.23 µg/g; Amount adsorbed into epidermis [4, 9]: 3.82 ± 1.88 µg/g"
"O=C(O)Cc1ccccc1Nc1c(Cl)cccc1Cl [diclofenac, reference compound]",–,–,–,–,–,–,–,–,602,–
